We go through 23 compounds from patent US20260028352A1, “MACROCYCLIC IMIDAZO [1,2-B] PYRIDAZINE DERIVATIVE, PREPARATION METHOD THEREFOR, AND USE THEREOF” (SUZHOU LANGRUI BIOPHARMACEUTICAL CO., LTD., priority 2022, published 2026).

Chain of TRKA^WT kinase (P04629 33-796): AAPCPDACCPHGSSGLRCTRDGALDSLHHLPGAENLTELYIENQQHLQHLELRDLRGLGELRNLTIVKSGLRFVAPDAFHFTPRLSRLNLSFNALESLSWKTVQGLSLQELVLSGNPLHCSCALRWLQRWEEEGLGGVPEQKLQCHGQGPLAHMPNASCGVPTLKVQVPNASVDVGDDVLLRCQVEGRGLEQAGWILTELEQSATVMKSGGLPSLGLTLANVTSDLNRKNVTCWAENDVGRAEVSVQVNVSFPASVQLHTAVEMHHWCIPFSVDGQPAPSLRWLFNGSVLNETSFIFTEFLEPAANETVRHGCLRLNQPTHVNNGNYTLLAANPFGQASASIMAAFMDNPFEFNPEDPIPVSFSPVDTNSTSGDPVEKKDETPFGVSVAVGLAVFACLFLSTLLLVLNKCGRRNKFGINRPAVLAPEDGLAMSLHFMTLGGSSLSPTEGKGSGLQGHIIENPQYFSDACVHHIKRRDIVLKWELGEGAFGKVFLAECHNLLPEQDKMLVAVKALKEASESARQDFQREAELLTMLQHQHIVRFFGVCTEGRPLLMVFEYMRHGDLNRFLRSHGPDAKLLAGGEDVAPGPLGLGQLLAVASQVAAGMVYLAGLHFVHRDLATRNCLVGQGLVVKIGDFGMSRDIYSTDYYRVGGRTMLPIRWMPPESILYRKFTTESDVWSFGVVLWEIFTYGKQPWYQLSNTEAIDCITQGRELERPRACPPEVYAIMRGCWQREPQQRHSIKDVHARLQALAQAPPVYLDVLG

The first test relates to Ba/F3-TPM3-NTRK1-G667C cells. The test can be described thus: Growth inhibition of Ba/F3-TPM3-NTRK1-G667C cells (Cell Titer-Glo). The test is classed as cell-based. Conditions: 72 hours, CTG; read-out: inhibitory activity IC50 Ba/F3-TPM3-NTRK1-G667C. The protocol: Then the solutions were subjected to a gradient dilution with DMSO: a clean, sterile V-bottom 96-well microplate was placed in the biological safety cabinet. First, 4 μL of DMSO was added to well B2 and 10 μL of DMSO was added to wells B3-B11 respectively; Next, 6 μL of the 10 mM solution was added to well B2. The microplate was pipetted up and down 10 times for mixing. […] Mixing was performed by pipetting up and down 10 times. The solution was diluted in order until well B10. only DMSO was added to well B11 (no compound).
6× Compound Solution Preparation (6-fold dilution, × represents dilution factor): (Initial final concentration: 10 μM), a clean, sterile V-bottom 96-well microplate was placed in the biological safety cabinet. 99 μL of cell culture medium was added to each well from B2 to G11. By using a 12-channel pipettor, 1 μL of the compound solution prepared in the previous step was added into the corresponding wells. The solutions were pipetted up and down 10 times to mix the solutions. The highest concentration of compound in this step was 60 μM.
Treatment of Cells: the above-prepared cell culture plate was taken out of the incubator. 20 μL of compound solution from each well was added to the corresponding cell culture wells. The lowest pipetting speed was used and touching the bottom of the plate was avoided. The culture plate was gently shaked to mix the compound solution, then the plate was returned to the incubator for further culture for 72 hours.
The highest treatment concentration of the compound was 10 μM. After 72 hours of treatment, the Cell Titer-Glo (CTG) assay was performed. First, the cell culture plate was removed from the CO2 incubator and allowed to stand at room temperature for 30 minutes to ensure uniform temperature of the plate. The pre-prepared Cell Titer-Glo reagent (following the manufacturer's instructions) was taken and allowed to stand at room temperature to thaw. 60 μL of Cell Titer-Glo reagent was added to each well containing cells. The cells were incubated on a horizontal shaker in a dark place at 225 rpm for 1 hour at room temperature. Then, a Tecan Spark microplate reader was used to read the plate using chemiluminescence according to the manufacturer's instructions.
Background: Cellular ATP, detected with luciferase, serves as a proxy for viable cell number.
As to `C[C@H]1Nc2ccc3ncc(n3n2)-c2cc(ncn2)CCOc2ccc(F)cc21` [Example I-74, (4R,E)-5′-fluoro-4-methyl-6-oxa-3-aza-2(3,6)-imidazo[1,2-b]pyridazina-1(4,6)-pyrimidina-5(1,2)-benzenacyclooctaphane], the IC50 is below 100 nM. Same read-out and setting: the value for `C[C@H]1Nc2ccc3ncc(n3n2)-c2cc(ccn2)CCOc2ncc(F)cc21` [Example I-75, (4R,E)-5^5-fluoro-4-methyl-6-oxa-3-aza-2(3,6)-imidazo[1,2-b]pyridazina-1(2,4), 5(3,2)-dipyridinacyclooctaphane] was below 100 nM; that for `C[C@H]1Nc2ccc3ncc(n3n2)-c2cc(ccn2)CCOc2ccc(F)cc21` [Example I-76, (4R,E)-5-fluoro-4-methyl-6-oxa-3-aza-2(3,6)-imidazo[1,2-b]pyridazina-1(2,4)-pyridina-5(1,2)-benzenacyclooctaphane] was below 100 nM. Turning to `C[C@H]1Nc2ccc3ncc(n3n2)-c2cc(ncn2)COc2ncc(F)cc21` [Example I-77, (6R,E)-5^5-fluoro-6-methyl-4-oxa-7-aza-1(3,6)-imidazo[1,2-b]pyridazina-2(4,6)-pyrimidina-5(2,3)-pyridinacycloheptaphane], the IC50 was below 100 nM. As for `C[C@H]1Nc2ccc3ncc(n3n2)-c2cc(ncn2)COc2ccc(F)cc21` [Example I-78, (6R,E)-5^4-fluoro-6-methyl-4-oxa-7-aza-1(3,6)-imidazo[1,2-b]pyridazina-2(4,6)-pyrimidina-5(1,2)-benzenacycloheptaphane], the IC50 is below 100 nM. Take `C[C@H]1Nc2ccc3ncc(n3n2)-c2nccc(n2)COc2ncc(F)cc21` [Example I-79, (6R,E)-5^5-fluoro-6-methyl-4-oxa-7-aza-1(3,6)-imidazo[1,2-b]pyridazina-2(2,4)-pyrimidina-5(2,3)-pyridinacycloheptaphane]: the IC50 is below 100 nM.

On to `C[C@H]1Nc2ccc3ncc(n3n2)-c2nccc(n2)COc2ccc(F)cc21` [Example I-80, (6R,E)-5^4-fluoro-6-methyl-4-oxa-7-aza-1(3,6)-imidazo[1,2-b]pyridazina-2(2,4)-pyrimidina-5(1,2)-benzenacycloheptaphane], for which the IC50 was below 100 nM. For `C[C@H]1Nc2ccc3ncc(n3n2)-c2cc(cnn2)COc2ncc(F)cc21` [Example I-81, (6R,E)-5^5-fluoro-6-methyl-4-oxa-7-aza-1(3,6)-imidazo[1,2-b]pyridazina-2(3,5)-pyridazina-5(2,3)-pyridinacycloheptaphane], the IC50 was below 100 nM.

Take `C[C@H]1Nc2ccc3ncc(n3n2)-c2cc(cnn2)COc2ccc(F)cc21` [Example I-82, (6R,E)-54-fluoro-6-methyl-4-oxa-7-aza-1(3,6)-imidazo[1,2-b]pyridazina-2(3,5)-pyridazina-5(1,2)-benzenacycloheptaphane]: the IC50 is below 100 nM. On to `C[C@H]1Nc2ccc3ncc(n3n2)-c2nccc(n2)CCOc2ncc(F)cc21` [Example I-83, (4R,E)-5′-fluoro-4-methyl-6-oxa-3-aza-2(3,6)-imidazo[1,2-b]pyridazina-1(2,4)-pyrimidina-5(3,2)-pyridinacyclooctaphane], for which the IC50 was below 100 nM. With `C[C@H]1Nc2ccc3ncc(n3n2)-c2nccc(n2)CCOc2ccc(F)cc21` [Example I-84, (4R,E)-5^5-fluoro-4-methyl-6-oxa-3-aza-2(3,6)-imidazo[1,2-b]pyridazina-1(2,4)-pyrimidina-5(1,2)-benzenacyclooctaphane], the IC50 is below 100 nM. On the same count and under the same terms, for `Fc1ccc2c(c1)[C@H]1CCCN1c1ccc3ncc(n3n1)-c1nccc(n1)CCO2` [Example I-85, (3^2R,E)-4^5-fluoro-5-oxa-2(3,6)-imidazo[1,2-b]pyridazina-1(2,4)-pyrimidina-3(1,2)-pyrrolidina-4(1,2)-benzenacycloheptaphane] the value was below 100 nM. Still for that read-out and setting: for `Fc1cnc2c(c1)[C@H]1CCCN1c1ccc3ncc(n3n1)-c1nccc(n1)CCO2` [Example I-87, (3^2R,E)-4^5-fluoro-5-oxa-2(3,6)-imidazo[1,2-b]pyridazina-1(2,4)-pyrimidina-4(3,2)-pyridina-3(1,2)-pyrrolidinacycloheptaphane] the value was below 100 nM; for `Fc1ccc2c(c1)[C@H]1CCCN1c1ccc3ncc(n3n1)-c1cc(cnn1)CCO2` [Example I-91, (3^2R,E)-4^5-fluoro-5-oxa-2(3,6)-imidazo[1,2-b]pyridazina-1(3,5)-pyridazina-3(1,2)-pyrrolidina-4(1,2)-benzenacycloheptaphane], below 100 nM. The same measure, in the same setting: for `Fc1cnc2c(c1)[C@H]1CCCN1c1ccc3ncc(n3n1)-c1cc(cnn1)CCO2` [Example I-93, (3^2R,E)-4^5-fluoro-5-oxa-2(3,6)-imidazo[1,2-b]pyridazina-1(3,5)-pyridazina-4(3,2)-pyridina-3(1,2)-pyrrolidinacycloheptaphane] the value was below 100 nM.

Another test has as its target TRKA^WT kinase (Homo sapiens (Human), UniProt P04629). The test can be described thus: Inhibitory activity against TRKA WT kinase (Caliper mobility shift). Format: biochemical. As to conditions: in vitro kinase assay. The method, then: Kinase Assay Process: 1× Kinase buffer was prepared. […] The compounds were serially diluted into 10 concentrations ([…], 0.15, and 0.05 nM) using a Precision 3-fold dilution method. By using the Echo550 liquid handler, 250 nL of the 100-fold final concentration compound was transferred to an OptiPlate-384F plate. a 2.5× final concentration kinase solution was prepared using 1× Kinase buffer. 10 μL of the 2.5× final concentration kinase solution was added to the compound wells and the positive control wells, and 10 μL of 1× Kinase buffer was added to the negative control wells. The plate was centrifuged at 1000 rpm for 30 seconds, vortexed for mixing, and then incubated at room temperature for 10 minutes. A mixture of 5/3× final concentration of ATP and Kinase Substrate 22 was prepared using 1× Kinase buffer. 15 μL of the mixture of the 5/3× final concentration ATP and the substrate was added to initiate the reaction, the 384-well plate was centrifuged at 1000 rpm for 30 seconds, vortexed for mixing, and incubated at room temperature for the required time. 30 μL of the termination solution was added to stop the kinase reaction, the plate was centrifuged at 1000 rpm for 30 seconds, and vortexed for mixing. The conversion rate was measured using the Caliper EZ Reader.
Data Analysis: the inhibition rate was calculated as follows:
% Inhibition=(Conversion %_max−conversion %_sample)÷(Conversion %_max−conversion %_min)×100
Conversion %_sample is the conversion rate reading for the sample; Conversion %_min is the average value of the negative control wells, representing the conversion rate for wells without enzyme activity: Conversion %_max is the average value of the positive control wells, representing the conversion rate for wells without compound inhibition. A dose-response curve was fitted using the log concentration of the compound as the X-axis and the percentage inhibition as the Y-axis. The log(inhibitor) vs. response-variable slope of the GraphPad Prism 5 software was used to fit the dose-response curve, and the IC50 value for each compound was obtained. The calculation formula is:
Y=Bottom+(Top−Bottom)/(1+10^((Log IC50−X)*HillSlope)).
wherein X represents the concentration of the compound to be tested; Y represents the inhibition rate at the concentration X: Top refers to the maximum response: Bottom refers to the baseline response; HillSlope refers to the slope of the curve (i.e., the gradient).
Turning to `C[C@@H]1Nc2ccc3ncc(n3n2)-c2cc(ccn2)COc2ccc(F)cc21` [Example I-15, (S)-(E)-5′-fluoro-6-methyl-4-oxa-7-aza-1(3,6)-imidazo[1,2-b]pyridazina-2(2,4)-pyridina-5(1,2)-benzenacycloheptaphane], the IC50 came to 4.8 nM.

With `C[C@@H]1Nc2ccc3ncc(n3n2)-c2cc(ccn2)COc2c(F)cc(F)cc21` [Example I-17, (S)-(E)-5′,5′-difluoro-6-methyl-4-oxa-7-aza-1(3,6)-imidazo[1,2-b]pyridazine-2(2,4)-pyridina-5(1,2)-benzenacycloheptaphane], the IC50 was determined as 5.2 nM. Still for that read-out and setting: for `C[C@@H]1Nc2ccc3ncc(n3n2)-c2cc(ccn2)COc2ccccc21` [Example I-19, (S)-(E)-6-methyl-4-oxa-7-aza-1(3,6)-imidazo[1,2-b]pyridazine-2(2,4)-pyridina-5(1,2)-benzenacycloheptaphane] the value was 5.7 nM. The same measure, in the same setting: for `C[C@@H]1Nc2ccc3ncc(n3n2)-c2cc(ccn2)COc2ncccc21` [Example I-21, (6S,E)-6-methyl-4-oxa-7-aza-1(3,6)-imidazo[1,2-b]pyridazina-2(2,4), 5(2,3)-dipyridinacycloheptaphane] the value was 6.1 nM; for `C[C@@H]1Nc2ccc3ncc(n3n2)-c2cncc(c2)COc2ccc(F)cc21` [Example I-23, (S)-(E)-5^4-fluoro-6-methyl-4-oxa-7-aza-1(3,6)-imidazo[1,2-b]pyridazina-2(3,5)-pyridina-5(1,2)-benzenacycloheptaphane], 4.8 nM. Same read-out and setting: for `C[C@@H]1Nc2ccc3ncc(n3n2)-c2cc(ncn2)COc2ccccc21` [Example I-27, (6S,E)-6-methyl-4-oxa-7-aza-1(3,6)-imidazo[1,2-b]pyridazina-2(4,6)-pyrimidina-5(1,2)-benzenacycloheptaphane] the value was 3.7 nM. As to `C[C@@H]1Nc2ccc3ncc(n3n2)-c2cc(ccn2)CCOc2ccccc21` [Example I-29, (4S,E)-4-methyl-6-oxa-3-aza-2(3,6)-imidazo [1,2-b]pyridazina-1(2,4)-pyridina-5(1,2)-benzenacyclooctaphane], the IC50 was 4.9 nM. Still for that read-out and setting: the value for `C[C@@H]1Nc2ccc3ncc(n3n2)-c2cc(ccn2)OCc2ccc(F)cc21` [Example I-31, (S)-(E)-5^4-fluoro-6-methyl-3-oxa-7-aza-1(3,6)-imidazo[1,2-b]pyridazina-2(2,4)-pyridina-5(1,2)-benzenacycloheptaphane] was 5.7 nM.
